{"source": "paper PMC6407204", "about": "“Oral administration of the cannabigerol derivative VCE-003.2 promotes subventricular zone neurogenesis and protects against mutant huntingtin-induced neurodegeneration” (Translational Neurodegeneration, 2019)", "key": {"neural progenitor": {"tested_on": "neural progenitor", "design": "method as in PMID 27430371", "details": "cited from earlier work"}, "[1]": {"tested_on": "quinolinic acid-administration model of HD", "design": "method as in PMID 27430371", "details": "cited from earlier work"}, "hERG channel": {"target": "hERG channel (Homo sapiens, UniProt Q12809)", "sequence (Q12809 whole entry)": "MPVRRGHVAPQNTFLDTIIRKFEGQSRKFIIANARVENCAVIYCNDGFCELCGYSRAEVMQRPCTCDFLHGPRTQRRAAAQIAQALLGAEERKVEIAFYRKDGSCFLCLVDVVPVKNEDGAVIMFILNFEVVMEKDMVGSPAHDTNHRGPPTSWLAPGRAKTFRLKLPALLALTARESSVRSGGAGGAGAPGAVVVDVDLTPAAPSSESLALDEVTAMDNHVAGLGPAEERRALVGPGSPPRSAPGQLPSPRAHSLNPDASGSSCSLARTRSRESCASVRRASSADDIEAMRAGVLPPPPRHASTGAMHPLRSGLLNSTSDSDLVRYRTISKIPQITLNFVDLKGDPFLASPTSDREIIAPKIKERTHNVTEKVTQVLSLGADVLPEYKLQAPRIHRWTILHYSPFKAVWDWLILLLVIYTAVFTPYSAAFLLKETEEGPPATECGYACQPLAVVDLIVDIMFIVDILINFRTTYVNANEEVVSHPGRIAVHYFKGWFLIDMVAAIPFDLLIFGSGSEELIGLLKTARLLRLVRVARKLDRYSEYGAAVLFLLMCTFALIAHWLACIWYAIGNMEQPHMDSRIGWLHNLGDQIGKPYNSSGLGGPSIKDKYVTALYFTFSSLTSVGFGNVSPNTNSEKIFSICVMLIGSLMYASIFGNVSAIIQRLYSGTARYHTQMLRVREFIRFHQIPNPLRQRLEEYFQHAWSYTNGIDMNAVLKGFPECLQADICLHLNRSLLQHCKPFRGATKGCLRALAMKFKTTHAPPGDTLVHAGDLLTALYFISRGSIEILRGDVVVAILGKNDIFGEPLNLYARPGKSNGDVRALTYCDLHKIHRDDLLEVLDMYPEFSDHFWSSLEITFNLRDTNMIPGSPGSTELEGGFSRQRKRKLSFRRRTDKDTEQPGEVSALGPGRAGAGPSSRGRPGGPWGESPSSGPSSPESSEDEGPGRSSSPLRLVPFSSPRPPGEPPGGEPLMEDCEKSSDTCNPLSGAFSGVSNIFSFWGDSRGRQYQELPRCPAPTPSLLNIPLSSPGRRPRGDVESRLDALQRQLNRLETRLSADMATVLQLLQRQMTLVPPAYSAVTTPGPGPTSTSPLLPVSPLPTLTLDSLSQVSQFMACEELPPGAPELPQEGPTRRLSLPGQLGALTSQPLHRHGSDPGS"}, "S. typhimurium TA98": {"tested_on": "S. typhimurium TA98", "experiment": "AMES reverse mutation assay, TA98", "assay_type": "cell-based", "procedure": "Supplementary file 40035_2019_148_MOESM4_ESM.pdf: Additional file 4: AMES Data Summary. AMES Experimental Procedure. Approximately ten million bacteria are exposed in triplicate to VCE-003-.2 (7.8, 15.6, 31.3, 62.5, 125 and 250 μg/ml), a negative control (vehicle) and a positive control for 90 min in medium containing a low concentration of histidine (sufficient for about 2 doublings). The cultures were then diluted into indicator medium lacking histidine and dispensed into 48 wells of a 384 well plate (micro-plate format, MPF). The plate was incubated for 48 h at 37 °C, and the number of wells showing growth were counted and compared to the vehicle control. An increase in the number of colonies of at least two-fold over baseline (mean + SD of the vehicle control) and a dose response indicates a positive response. […] Where indicated, S9 fraction from the livers of Aroclor 1254-treated rats was included in the incubation at a final concentration of 4.5%. An NADPH-regenerating system is also included to ensure a steady supply of reducing equivalents. The strains used in this study were S. typhimurium TA98 (hisD3052, rfa, uvrB/pKM10 for detection of frame-shift mutations) and S. typhimurium TA100 ([…], rfa, uvrB/pKM101 for detection of base-pair substitutions). VCE-003.2 was assessed for its mutagenic potential in the AMES reverse mutation assay. This test was performed in the absence and presence of S9 metabolic activation. […] The positive controls all behaved as expected. (PDF 568 kb)"}, "[2]": {"tested_on": "R1 mouse embryonic stem (mES) cell line", "experiment": "Mouse embryonic stem cell (R1) neural differentiation, CTIP2 and doublecortin immunofluorescence", "assay_type": "cell-based", "details": "500 nM during neural differentiation for 21 days, vs vehicle", "procedure": "R1 mouse embryonic stem (mES) cell line was grown on gelatin 0.1%, in Knockout DMEM supplemented with 20% Knockout Serum Replacement, 1000 U ml-1 of LIF, 0.1 mM of non-essential amino acids, 2 mM ultraglutamine, 50 U ml-1 of penicillin and streptomycin and 0.1 mM of 2-mercaptoethanol. Cells were then differentiated at low density in Defined Default Medium (DDM) containing DMEM/F12 + GlutaMAX supplemented with N2 supplement (1×), 5 mM of Hepes Buffer, 0.1 mM of non-essential amino acids, 1 mM of sodium pyruvate, 2.5 mg ml-1 of AlbuMax-I, 30 mM of D-Glucose, 0.1 mM of non-essential amino acids, 0.1 mM of 2-mercaptoethanol, 50 U ml-1 of penicillin and streptomycin for 12 days. […]\nFree floating coronal brain slices (30 μm) were processed as previously described. […] The lateral SVZ zone was delineated by using DAPI-counterstained cell nuclei, and analyses were performed in the upper dorsal tier, in which positively-labelled cells and immunoreactivity were quantified not beyond 100 μm of the SVZ. Confocal fluorescence images were acquired by using LAS-X software (Wetzlar, Germany) and SP8 microscope with 2 passes by Kalman filter, a 1024X1024 collection box, and pinhole AU 1. […] Cells were quantified within a 20 × 20 μm counting frame, which randomly sampled within a 122.8 × 68.9 μm counting grid. […]"}}}
{"smiles": "CCCCCC1=C(NCC)C(=O)C(CC=C(C)CCC=C(C)C)=C(O)C1=O", "note": "[VCE-003.2, 2-(3,7-dimethyl-octa-2,6-dienyl)-6-ethylamino-3-hydroxy-5-pentyl-(1,4) benzoquinone]", "values": [{"measurement": "neural progenitor survival", "setting": "neural progenitor", "result": "increases neural progenitor survival"}, {"measurement": "neuroprotection in quinolinic acid model of HD", "setting": "[1]", "result": "neuroprotective"}, {"measurement": "hERG channel activity inhibition (in words)", "setting": "hERG channel", "result": "did not inhibit hERG channel activity"}, {"measurement": "AMES Result", "setting": "S. typhimurium TA98; TA98, S9 no", "result": "Negative"}, {"measurement": "AMES Result", "setting": "S. typhimurium TA98; TA98, S9 yes", "result": "Negative"}, {"measurement": "doublecortin immunoreactivity", "setting": "[2]", "result": "increased"}, {"measurement": "number of CTIP2-positive cells", "setting": "[2]", "result": "increased the number of CTIP2-positive cells"}]}
